According to patent US20140200825A1, “Method for predicting whether a cancer patient will not benefit from platinum-based chemotherapy agents” (Biodesix, Inc., priority 2012, published 2014):

Assays:
Type in all cases: in vivo, human
NSCLC = assay: Subgroup of NSCLC patients treated with docetaxel, overall survival by VeriStrat group; details: between VeriStrat Good and VeriStrat Poor patients, FIG. 6
Excerpt: FIG. 6 is a Kaplan-Meier plot of overall survival for a subgroup analysis of one of the cohorts studied in Taguchi et al., Mass spectrometry to classify non-small-cell lung cancer patients for clinical outcome after treatment with epidermal growth factor receptor tyrosine kinase inhibitors: a multicohort cross-institutional study.
Given our previous experience with VeriStrat separation in NSCLC and other cancers, we believe that the difference shown in FIGS. 1-4 and 7A-7B lies principally in the Poor group—i.e., that they probably benefit very little from the combination of gemcitabine+cisplatin (or possibly other combinations of chemotherapy based on a platinum agent), but can get outcomes similar to Good patients if they receive gemcitabine alone, or another non-platinum agent, for example, docetaxel. Our results in a subgroup of NSCLC patients treated with docetaxel show no difference in overall survival between VeriStrat Good and VeriStrat Poor patients (hazard ratio 1.03, p=0.95, see FIG. 6 for a Kaplan-Meier plot)

[1] = system: advanced non-small cell lung cancer (NSCLC); assay: LCCC0512 study, gemcitabine arm, outcome by VeriStrat group; details: for median PFS: NSCLC patients treated with gemcitabine alone
Method: The LCCC0512 study was a randomized phase II trial of first-line treatment with gemcitabine, erlotinib or the combination in elderly (over 70 years old) patients with advanced non-small cell lung cancer (NSCLC). Patients had stage IIIB or IV NSCLC and ECOG performance status of 0-2. Patients were randomized to receive either a maximum of 4 cycles of gemcitabine (1200 mg/m^2 days 1,8 every 21 days), 150 mg erlotinib daily, or a maximum of 4 cycles of gemcitabine (1000 mg/m^2 days 1,8 every 21 days) with concurrent 100 mg erlotinib daily. Primary endpoint was progression-free survival at 6 months. Patients randomized to receive gemcitabine monotherapy were encouraged to continue on study to receive erlotinib after progression. A total of 146 patients were enrolled. No significant differences in PFS or OS were found between treatment arms.
Pretreatment serum or plasma samples from patients in the LCCC0512 trial were available for VeriStrat testing. 124 samples were received. Sixty four samples were classified as VeriStrat Good, 39 as VeriStrat Poor and 7 as Indeterminate (undefined/equivocal classification). Of the remaining samples 13 could not be processed due to hemolysis and data could not be collected from one sample. For 5 samples where VeriStrat testing was performed, the samples could not be matched to clinical data from the trial. This left 98 samples with VeriStrat classification of Good or Poor and clinical data for statistical analysis. The majority of the samples tested were plasma, but where plasma was not available for a few patients, serum samples were used. Of the samples on which VeriStrat testing yielded a result of Good or Poor only 5 were identified as serum.
Survival analysis was carried out using SAS Enterprise Guide (SAS 9.2). Difference between groups was assessed using log-rank p values. Both univariate and multivariate hazard ratios were evaluated using Cox proportional hazard models. Kaplan-Meier plots and p values for contingency tables were generated using PRISM (GraphPad). For purposes of this disclosure, the data of interest pertain to the “gemcitabine” arm.

ovarian cancer = assay: Ovarian cancer study, carboplatin and paclitaxel after surgery, outcome by VeriStrat group
Method: The data shown in FIGS. 7A and 7B reflect VeriStrat testing on a subset of 96 patients from a larger study of about 160 patients. In this study, serum samples were taken from ovarian cancer patients before surgery and retrospectively analyzed with the VeriStrat test. After surgery, the patients were treated with carboplatin and paclitaxel.

[2] = between VeriStrat groups, gemcitabine alone

Compound: CC(=O)O[C@@]12CO[C@@H]1C[C@H](O)[C@@]1(C)C(=O)[C@H](O)C3=C(C)[C@@H](OC(=O)[C@H](O)[C@@H](NC(=O)OC(C)(C)C)c4ccccc4)C[C@@](O)([C@@H](OC(=O)c4ccccc4)[C@H]21)C3(C)C [docetaxel]
- hazard ratio, overall survival (NSCLC): 1.03

Compound: Nc1ccn([C@@H]2O[C@H](CO)[C@@H](O)C2(F)F)c(=O)n1 [gemcitabine]
- median PFS ([1]; VeriStrat Good group): 133 days
- median OS ([1]; VeriStrat Good group, gemcitabine alone): 201 days
- median PFS ([1]; VeriStrat Poor group): 137 days
- median OS ([1]; VeriStrat Poor group, gemcitabine alone): 197 days
- hazard ratio (HR), OS by VeriStrat group [1, 2]: 0.82
- hazard ratio (HR), PFS by VeriStrat group [1, 2]: 1.21

Compound: carboplatin and paclitaxel
- median disease free survival time (ovarian cancer; VeriStrat Good patients): 20 months
- median overall survival time (ovarian cancer; VeriStrat Good patients): undefined
- Hazard Ratio, disease free survival (ovarian cancer; VeriStrat Good vs Poor, FIG. 7A): 0.4906
- hazard ratio, overall survival (ovarian cancer; VeriStrat Good vs Poor, FIG. 7B): 0.3061
- median disease free survival time (ovarian cancer; VeriStrat Poor patients): 11 months
- median overall survival time (ovarian cancer; VeriStrat Poor patients): 21 months
